# Activity calls are given as the source filed them.
# Experiments:
# [1] = viability of uninfected HEp-2 cells – cell-based, HTS, cytotoxicity control for RSV inhibitor project, dose response (AID 2410); assay type: functional; settings: human respiratory syncytial virus
# Protein skinhead-1 = molecular target: T1, Protein skinhead-1 (Caenorhabditis elegans, UniProt P34707); assay type: functional
# T1 sequence (P34707 whole entry): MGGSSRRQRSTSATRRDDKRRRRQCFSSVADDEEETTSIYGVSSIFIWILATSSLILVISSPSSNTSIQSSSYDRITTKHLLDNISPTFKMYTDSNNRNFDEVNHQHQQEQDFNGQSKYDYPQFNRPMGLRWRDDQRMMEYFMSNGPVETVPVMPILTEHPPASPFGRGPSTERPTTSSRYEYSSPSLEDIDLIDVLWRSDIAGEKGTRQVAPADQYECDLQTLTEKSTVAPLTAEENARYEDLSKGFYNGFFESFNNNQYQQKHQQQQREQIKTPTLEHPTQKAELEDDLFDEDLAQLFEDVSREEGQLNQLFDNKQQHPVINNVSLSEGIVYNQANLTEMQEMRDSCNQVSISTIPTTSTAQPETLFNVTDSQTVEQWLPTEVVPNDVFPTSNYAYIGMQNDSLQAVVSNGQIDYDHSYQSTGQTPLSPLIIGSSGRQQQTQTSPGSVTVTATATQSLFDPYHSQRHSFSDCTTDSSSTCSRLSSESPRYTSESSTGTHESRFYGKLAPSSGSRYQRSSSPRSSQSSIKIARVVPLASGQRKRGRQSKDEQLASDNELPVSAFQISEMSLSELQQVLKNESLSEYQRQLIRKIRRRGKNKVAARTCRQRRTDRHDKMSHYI
# cells [2] = assay type: functional, cell-based
# cells [3] = assay type: functional, cell-based; remark: listed apart in the source
# [4] = molecular target: FAD-linked sulfhydryl oxidase ALR (Homo sapiens, UniProt P55789); experiment: ALR-catalysed DTT oxidation blockers – biochemical, H2O2 detection, luminescence, cherry-pick, dose response (AID 493248)
# Sequence of FAD-linked sulfhydryl oxidase ALR (P55789 whole entry): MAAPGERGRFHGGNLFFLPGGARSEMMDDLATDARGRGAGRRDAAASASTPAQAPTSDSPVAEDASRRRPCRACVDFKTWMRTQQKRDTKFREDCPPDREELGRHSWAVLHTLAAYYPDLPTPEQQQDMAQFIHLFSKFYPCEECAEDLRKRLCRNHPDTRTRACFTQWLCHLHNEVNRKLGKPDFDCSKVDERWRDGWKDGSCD
# [5] = Luminescence Cell-Based Dose Confirmation HTS to Identify Activators of 5'UTR Stem-Loop Driven Alpha-Synuclein mRNA Translation in H4 Neuroglioblastoma Cells. [Related pubchem assays: 1829 (Project Summary), 1814 (Primary HTS)]; assay type: functional
# [6] = viability of PTEN-deleted HCT116 cells – cell-based, HCT116 PTEN knockout, dose response (AID 1047); assay type: functional;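 further: HCT116 colon tumor cells with PTEN knocked out; cells exposed to compound for 60 hours before readout; potency for loss of cell viability measured by luminescence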
# [7] = viability of HCT116 lacking mutant beta-catenin – cell-based, human colon tumor, dose response (AID 1045); assay type: functional;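 further: HCT116 colon tumor cells with beta catenin knocked out; cells exposed to compound for 60 hours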
# Nonstructural protein 1 = Nonstructural protein 1 (Influenza A virus, UniProt Q194T2); assay type: functional, Influenza A virus (A/California/07/2009(H1N1))
# Sequence of Nonstructural protein 1 (Q194T2 whole entry): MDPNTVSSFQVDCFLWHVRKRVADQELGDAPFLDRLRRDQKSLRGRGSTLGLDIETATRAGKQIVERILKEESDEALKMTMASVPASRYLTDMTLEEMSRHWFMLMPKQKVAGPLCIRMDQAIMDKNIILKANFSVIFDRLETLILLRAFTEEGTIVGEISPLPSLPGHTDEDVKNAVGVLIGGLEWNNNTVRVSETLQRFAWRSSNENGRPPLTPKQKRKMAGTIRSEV
# [8] = reduction of Shn3 3'UTR-driven luciferase in osteoblasts – cell-based, Clone20 osteoblasts, firefly luciferase, cherry-picked, dose response (AID 624132); assay type: functional;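 further: firefly luciferase luminescence from reporter carrying the Shn3 3'UTR in osteoblasts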
# [9] = loss of viability in HepG2 cells – cell-based, CellTiter-Glo, cherry-picked, cytotoxicity control for Shn3 inhibitor project, dose response (AID 624134); assay type: functional
# [10] = non-specific 3'UTR reporter inhibition in Clone20-Shn3RL – cell-based, Renilla luciferase, cherry-picked, counter-screen for Shn3 inhibitor project, dose response (AID 624133); assay type: functional
# [11] = molecular target: Peroxisome proliferator-activated receptor gamma/Nuclear receptor coactivator 1 (Homo sapiens, UniProt P37231); experiment: (§1) TR-FRET dose response biochemical High Throughput Screening assay for agonists of the steroid receptor coactivator 1 (SRC-1) recruitment by the peroxisome proliferator-activated receptor gamma (PPAR gamma): non-selective agonists. [Related pubchem assays (depositor defined):AID1300, AID1808, AID504735, AID631]; assay type: protein assay
# Sequence of Peroxisome proliferator-activated receptor gamma/Nuclear receptor coactivator 1 (P37231 whole entry): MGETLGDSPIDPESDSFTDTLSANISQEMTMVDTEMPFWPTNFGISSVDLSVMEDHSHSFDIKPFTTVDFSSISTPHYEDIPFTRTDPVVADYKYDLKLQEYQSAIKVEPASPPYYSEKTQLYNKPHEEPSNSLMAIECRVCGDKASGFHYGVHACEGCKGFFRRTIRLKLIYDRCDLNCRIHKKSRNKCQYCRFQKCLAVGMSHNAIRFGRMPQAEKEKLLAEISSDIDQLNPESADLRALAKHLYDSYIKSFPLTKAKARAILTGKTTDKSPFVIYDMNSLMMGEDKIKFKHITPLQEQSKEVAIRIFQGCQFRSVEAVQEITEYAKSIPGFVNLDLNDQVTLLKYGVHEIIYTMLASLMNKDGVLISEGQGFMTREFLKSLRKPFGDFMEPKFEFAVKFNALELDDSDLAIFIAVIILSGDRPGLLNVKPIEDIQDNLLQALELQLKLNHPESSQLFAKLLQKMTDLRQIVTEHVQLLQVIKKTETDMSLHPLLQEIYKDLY
# Sequence of Peroxisome proliferator-activated receptor gamma/Nuclear receptor coactivator 1 (Q15788 whole entry, further chain): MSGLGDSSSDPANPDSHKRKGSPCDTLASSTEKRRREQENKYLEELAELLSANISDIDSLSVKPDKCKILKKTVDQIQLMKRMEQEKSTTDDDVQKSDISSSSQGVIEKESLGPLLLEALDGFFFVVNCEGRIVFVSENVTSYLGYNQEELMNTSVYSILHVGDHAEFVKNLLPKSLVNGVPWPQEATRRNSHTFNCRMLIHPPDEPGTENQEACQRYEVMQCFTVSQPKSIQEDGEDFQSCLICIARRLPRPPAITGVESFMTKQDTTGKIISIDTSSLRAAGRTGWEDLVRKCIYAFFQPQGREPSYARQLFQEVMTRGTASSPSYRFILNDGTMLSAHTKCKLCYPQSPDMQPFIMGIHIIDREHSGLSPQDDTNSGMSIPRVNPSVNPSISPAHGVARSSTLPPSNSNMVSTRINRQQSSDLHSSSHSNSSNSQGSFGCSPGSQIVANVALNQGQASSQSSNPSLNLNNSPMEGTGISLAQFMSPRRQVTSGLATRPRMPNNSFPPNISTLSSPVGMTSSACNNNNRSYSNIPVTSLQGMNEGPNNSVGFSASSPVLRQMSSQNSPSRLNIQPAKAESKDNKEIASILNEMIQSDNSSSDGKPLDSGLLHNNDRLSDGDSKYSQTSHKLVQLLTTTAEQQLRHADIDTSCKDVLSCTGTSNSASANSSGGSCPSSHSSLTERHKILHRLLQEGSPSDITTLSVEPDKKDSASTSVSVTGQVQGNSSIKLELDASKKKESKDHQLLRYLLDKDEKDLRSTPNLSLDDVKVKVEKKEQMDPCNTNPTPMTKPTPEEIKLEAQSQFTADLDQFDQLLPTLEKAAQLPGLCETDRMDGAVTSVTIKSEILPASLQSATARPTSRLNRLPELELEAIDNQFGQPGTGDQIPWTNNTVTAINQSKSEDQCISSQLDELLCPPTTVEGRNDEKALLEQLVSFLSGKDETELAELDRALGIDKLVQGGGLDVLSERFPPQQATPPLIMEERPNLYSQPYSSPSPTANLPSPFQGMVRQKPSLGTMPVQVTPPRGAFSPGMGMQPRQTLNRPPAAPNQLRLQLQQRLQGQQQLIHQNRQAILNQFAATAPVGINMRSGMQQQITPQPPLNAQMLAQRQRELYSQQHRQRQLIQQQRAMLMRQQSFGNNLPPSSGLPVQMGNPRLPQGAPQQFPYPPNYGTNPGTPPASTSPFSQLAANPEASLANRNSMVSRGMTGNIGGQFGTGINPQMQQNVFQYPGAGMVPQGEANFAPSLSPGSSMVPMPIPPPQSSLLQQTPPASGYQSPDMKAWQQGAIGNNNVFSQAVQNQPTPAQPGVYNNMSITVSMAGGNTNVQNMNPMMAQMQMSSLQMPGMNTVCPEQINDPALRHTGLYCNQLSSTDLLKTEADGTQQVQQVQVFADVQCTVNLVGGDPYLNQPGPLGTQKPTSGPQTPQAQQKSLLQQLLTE
# [12] = molecular target: Peroxisome proliferator-activated receptor gamma/Nuclear receptor coactivator 3 (Homo sapiens, UniProt P37231); experiment: as §1, with “3 (SRC-3)” for “1 (SRC-1)”, “assays: 1301 (Confirmation screen.), 1048 (Primary screen.)]” for “assays (depositor defined):AID1300, AID1808, AID504735, AID631]”; assay type: functional
# [13] = molecular target: Peroxisome proliferator-activated receptor gamma/Nuclear receptor coactivator 2 (Homo sapiens, UniProt P37231); experiment: TR-FRET dose response biochemical High Throughput Screening assay for agonists of the steroid receptor coactivator 2 (SRC-2) recruitment by the peroxisome proliferator-activated receptor gamma (PPAR gamma): non-selective agonists. [Related pubchem assays: 1297, 1032 ]; assay type: functional
# Sequence of Peroxisome proliferator-activated receptor gamma/Nuclear receptor coactivator 2 (P37231 whole entry): as the sequence (P37231 whole entry) above
# Sequence of Peroxisome proliferator-activated receptor gamma/Nuclear receptor coactivator 2 (Q15596 whole entry, further chain): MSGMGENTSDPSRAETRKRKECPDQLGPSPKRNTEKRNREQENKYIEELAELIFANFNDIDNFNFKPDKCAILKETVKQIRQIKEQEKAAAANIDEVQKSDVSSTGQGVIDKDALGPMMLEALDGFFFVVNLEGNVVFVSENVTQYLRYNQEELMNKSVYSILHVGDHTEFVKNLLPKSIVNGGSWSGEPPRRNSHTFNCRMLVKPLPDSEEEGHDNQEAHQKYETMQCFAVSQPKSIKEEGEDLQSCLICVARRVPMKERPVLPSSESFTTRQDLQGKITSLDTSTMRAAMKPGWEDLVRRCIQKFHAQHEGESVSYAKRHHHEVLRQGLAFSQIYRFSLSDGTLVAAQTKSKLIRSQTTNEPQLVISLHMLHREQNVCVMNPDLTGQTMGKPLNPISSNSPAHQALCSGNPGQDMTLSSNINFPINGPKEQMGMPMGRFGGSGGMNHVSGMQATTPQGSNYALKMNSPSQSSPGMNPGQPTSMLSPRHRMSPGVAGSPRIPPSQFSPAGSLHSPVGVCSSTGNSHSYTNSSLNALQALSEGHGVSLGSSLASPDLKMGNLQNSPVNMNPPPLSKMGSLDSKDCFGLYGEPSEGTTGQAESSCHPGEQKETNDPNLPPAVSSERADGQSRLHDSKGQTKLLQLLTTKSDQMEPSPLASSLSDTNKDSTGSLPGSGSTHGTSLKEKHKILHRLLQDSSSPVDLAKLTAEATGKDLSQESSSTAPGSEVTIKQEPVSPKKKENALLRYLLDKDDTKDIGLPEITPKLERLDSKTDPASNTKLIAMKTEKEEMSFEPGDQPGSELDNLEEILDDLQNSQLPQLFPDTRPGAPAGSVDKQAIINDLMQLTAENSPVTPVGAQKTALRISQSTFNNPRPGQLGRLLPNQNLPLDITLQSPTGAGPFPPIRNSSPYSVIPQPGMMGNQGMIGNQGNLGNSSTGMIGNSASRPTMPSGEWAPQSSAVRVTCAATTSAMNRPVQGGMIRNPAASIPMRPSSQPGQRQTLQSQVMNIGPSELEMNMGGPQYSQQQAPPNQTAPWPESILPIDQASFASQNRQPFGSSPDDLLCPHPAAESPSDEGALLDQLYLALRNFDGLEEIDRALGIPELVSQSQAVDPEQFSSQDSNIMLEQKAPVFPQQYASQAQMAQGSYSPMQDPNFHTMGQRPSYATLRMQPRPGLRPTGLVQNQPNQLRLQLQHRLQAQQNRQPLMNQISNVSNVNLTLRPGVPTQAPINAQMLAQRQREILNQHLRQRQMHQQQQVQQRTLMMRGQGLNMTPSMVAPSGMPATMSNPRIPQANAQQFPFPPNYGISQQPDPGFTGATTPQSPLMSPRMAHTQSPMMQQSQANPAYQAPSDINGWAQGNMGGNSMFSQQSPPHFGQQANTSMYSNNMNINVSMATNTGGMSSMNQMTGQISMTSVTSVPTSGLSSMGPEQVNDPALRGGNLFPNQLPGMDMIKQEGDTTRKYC
# [14] = Trypanosoma cruzi growth suppression in host cells – NIH3T3 host cells, beta-gal luminescence, confirmation (AID 2044); assay type: functional, cell-based;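 further: intracellular parasites grown in NIH/3T3 mouse fibroblasts as host cells; luminescent beta-galactosidase reporter signal from transgenic T. cruzi replicating inside host cells; inhibitors lower the luminescence signal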
# [15] = NIH3T3 cell viability loss – ATP luminescence, mouse fibroblasts, counter-screen, dose response (AID 2010); assay type: functional, cell-based;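 further: cells exposed to compound for about 90 hours before reading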
# INS1 = experiment: INS-1E survival protection against cytokine death – cell-based, luminescence, retest, dose response (AID 449756); assay type: functional; settings: Rattus norvegicus;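 further: cell death triggered by IL-1 beta plus TNF-alpha plus IFN-gamma mixture; protective hits raise ATP signal compared with cytokine alone wells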
# [16] = Luminescence Cell-Based Dose Response HTS to Identify Activators of Luciferase Translation or Activity in H4 […] Cells. [Related pubchem assays: 1829 (Project Summary), 1814 (Primary HTS)]; assay type: functional
# H4 = experiment: Luminescence Cell-Based Dose Response HTS to Identify Activators of 5'UTR Stem-Loop Driven Prion Protein mRNA Translation in H4 Neuroglioblastoma Cells. [Related pubchem assays: 1829 (Project Summary), 1814 (Primary HTS)]; assay type: functional; settings: Homo sapiens
smiles,measurement,setting,value
OCCCn1c(C2CCCN2c2nc(-c3ccc(F)cc3)cs2)nc2cc(C(F)(F)F)ccc21 (centres undefined),CC50,[1],16.8 µM (active)
Cc1c(-c2csc(N)n2)c2ccccc2n1C,IC50,Protein skinhead-1,> 100 µM (inactive)
Cc1ccc(C)c(CNS(=O)(=O)c2ccc3c(c2)C(C)(C)C(=O)N3C)c1,EC50,cells [2],> 350 µM (not active)
same,EC50,cells [3],> 350 µM (not active)
Cc1cc(C)c2c(-n3cccc3)c(C(=O)NNS(=O)(=O)c3ccc(Br)cc3)sc2n1,CC50,[1],19 µM (active)
same,AC50,[4],74.4 µM (active)
FC(F)Oc1ccc(C2NC(c3ccccc3)=NO2)cc1 (centres undefined),EC50,[5],0.115 µM (active)
same,IC50,Protein skinhead-1,80.6 µM (inactive)
CC(OC(=O)c1ncc(Cl)c(Cl)c1Cl)C(=O)NC1(C#N)CCCCC1 (centres undefined),EC50,cells [2],> 350 µM (not active)
same,EC50,cells [3],> 350 µM (not active)
COc1ccccc1N1CCN(c2cc(=O)n(Cc3ccc(F)cc3)c(=O)[nH]2)CC1,EC50,[6],10.5 µM (active)
same,EC50,[7],10.1 µM (active)
COc1ccccc1C(=O)Nc1ccc(S(=O)(=O)N2CCc3ccccc32)cc1,CC50,[1],48.7 µM (active)
CSc1sc(C(=O)N2CCCCC2)c(-c2cccs2)c1C#N,EC50,cells [2],> 350 µM (not active)
same,EC50,cells [3],> 350 µM (not active)
CC(C(=O)Nc1ccccc1-c1ccccc1)N(C)Cc1nc(O)c2ccccc2n1 (centres undefined),EC50,cells [2],> 350 µM (not active)
same,EC50,cells [3],> 350 µM (not active)
O=S(=O)(c1ccccc1)N1CCC(c2nc(O)c3nnn(Cc4cccc(Cl)c4)c3n2)CC1,CC50,[1],22.3 µM (active)
Oc1cc(Nc2cccnc2)cc2cccnc12,IC50,Nonstructural protein 1,8.89 µM (active)
same,AC50,[8],2.12 µM (active)
same,AC50,[9],38.8 µM (active)
same,AC50,[10],4.72 µM (active)
CCn1c(=O)cc(SCC(=O)N(C)Cc2ccccc2)c2ccccc21,EC50,[11],> 79.4 µM (inactive)
same,EC50,[12],> 79.4 µM (not active)
same,EC50,[13],> 79.4 µM (not active)
CC(=O)c1cccc(NS(=O)(=O)c2ccc(-c3cc(C)no3)s2)c1,EC50,cells [2],> 350 µM (not active)
same,EC50,cells [3],> 350 µM (not active)
Clc1ccc(CSc2ccc(-c3ccccn3)nn2)cc1,EC50,cells [2],12.5 µM (active)
same,EC50,[14],1.84 µM (active)
same,EC50,cells [3],43.7 µM (active)
same,EC50,[15],> 30 µM (not active)
same,AC50,INS1,5.06 µM (active)
CCS(=O)(=O)c1ccc(-c2cccc(NC(=O)COc3ccccc3)c2)nn1,EC50,cells [2],> 350 µM (not active)
same,EC50,cells [3],> 350 µM (not active)
CSc1nc(Sc2ccccc2Cl)c2ccccc2n1,EC50,[11],> 79.4 µM (inactive)
same,EC50,[12],> 79.4 µM (not active)
same,EC50,[13],> 79.4 µM (not active)
CCOCCn1c(COc2ccccc2)nc2ccccc21,IC50,Protein skinhead-1,> 100 µM (inactive)
COCCn1c(C)cc(C(=O)CN2C(=O)NC3(CCCCCCC3)C2=O)c1C,EC50,[5],0.94 µM (active)
same,EC50,[16],0.283 µM (active)
same,EC50,H4,8.28 µM (active)
CCc1ccc(Nc2c([N+](=O)[O-])nn(-c3ccccc3)[n+]2[O-])cc1,EC50,[14],0.461 µM (active)
same,EC50,[15],> 60 µM (not active)
same,IC50,Nonstructural protein 1,81.8 µM (active)

# — ChEMBL document CHEMBL1201862, “PubChem BioAssay data set” (2004)
